From US20040072184A1 (priority 2003, published 2004)

Test system: SGK2
Type: cell-based, human

SMILES | CapK sub (CCPM1) | No-Substrate (CCPM1) | PKB sub (CCPM1) | SGK2 kinase activity (result in words)
COC[C@@H]([C@H](O)[C@H](O)C(=O)NCC[C@H](C)c1nc(/C=C/C[C@@H]2O[C@]3(C[C@@H](O)[C@@H]2C)O[C@H]([C@H](C[C@H](O)[C@H](C)[C@H](O)[C@H](C)/C=C(C)/C(C)=C/C=C/C(C)=C\C#N)OC)[C@H](OP(=O)(O)O)C3(C)C)co1)N(C)C [Calyculin A] | 59335 CCPM1 | 0 CCPM1 | 92540 CCPM1 | stimulated SGK2 kinase activity
C=C1[C@@H](O)[C@@H]2O[C@]3(CC[C@H](/C=C/[C@@H](C)[C@@H]4CC(C)=C[C@@]5(O[C@H](C[C@@](C)(O)C(=O)O)CC[C@H]5O)O4)O3)CC[C@H]2O[C@@H]1[C@@H](O)C[C@H](C)[C@H]1O[C@@]2(CCCCO2)CC[C@H]1C [Okadaic Acid] | 161553 CCPM1 | 2078 CCPM1 | 132171 CCPM1 | stimulated SGK2 kinase activity
